In ChEMBL document CHEMBL1275576, “In vitro activity of tomopenem (CS-023/RO4908463) against anaerobic bacteria” (Antimicrob Agents Chemother, 2009):

Legend:
Type in all cases: functional
Bacteroides fragilis [1] = assay: Antimicrobial activity against Bacteroides fragilis GAI 5562 by agar dilution method in presence of 5% laked sheep blood
[2] = Antimicrobial activity against Bifidobacterium longum subsp. longum ATCC 15707 by agar dilution method in presence of 5% laked sheep blood
[3] = system: Desulfovibrio desulfuricans; assay: Antimicrobial activity against Desulfovibrio desulfuricans ATCC 29577 by agar dilution method in presence of 5% laked sheep blood
Bacteroides fragilis [4] = assay: Antimicrobial activity against Bacteroides fragilis GAI 7955 by agar dilution method in presence of 5% laked sheep blood
Veillonella parvula = assay: Antimicrobial activity against Veillonella parvula ATCC 10790 by agar dilution method in presence of 5% laked sheep blood
Campylobacter gracilis = assay: Antimicrobial activity against Campylobacter gracilis JCM 8538 by agar dilution method in presence of 5% laked sheep blood
Parvimonas micra = assay: Antimicrobial activity against Parvimonas micra VPI 5464-1 by agar dilution method in presence of 5% laked sheep blood
Bifidobacterium bifidum = assay: Antimicrobial activity against Bifidobacterium bifidum JCM 1255 by agar dilution method in presence of 5% laked sheep blood
Clostridium septicum = assay: Antimicrobial activity against Clostridium septicum ATCC 12464 by agar dilution method in presence of 5% laked sheep blood
Clostridioides difficile = assay: Antimicrobial activity against Clostridium difficile GAI 10029 by agar dilution method in presence of 5% laked sheep blood
Bacteroides fragilis [5] = assay: Antimicrobial activity against Bacteroides fragilis NCTC 10581 by agar dilution method in presence of 5% laked sheep blood
[6] = system: Peptoniphilus asaccharolyticus; assay: Antimicrobial activity against Peptoniphilus asaccharolyticus WAL 3218 by agar dilution method in presence of 5% laked sheep blood
Bacteroides fragilis [7] = assay: Antimicrobial activity against Bacteroides fragilis ATCC 25285 by agar dilution method in presence of 5% laked sheep blood; settings: NCTC 9343
[8] = system: Bacteroides heparinolyticus; assay: Antimicrobial activity against Prevotella heparinolytica ATCC 35895 by agar dilution method in presence of 5% laked sheep blood
Thomasclavelia ramosa = assay: Antimicrobial activity against Clostridium ramosum ATCC 25582 by agar dilution method in presence of 5% laked sheep blood
Prevotella oris = assay: Antimicrobial activity against Prevotella oris ATCC 33573 by agar dilution method in presence of 5% laked sheep blood; settings: Segatella oris
Bilophila wadsworthia = assay: Antimicrobial activity against Bilophila wadsworthia WAL 7959 by agar dilution method in presence of 5% laked sheep blood
[9] = system: Fusobacterium necrophorum; assay: Antimicrobial activity against Fusobacterium necrophorum ATCC 25286 by agar dilution method in presence of 5% laked sheep blood
Bacteroides fragilis [10] = assay: Antimicrobial activity against carbapenemase-producing Bacteroides fragilis GAI 30144 by agar dilution method in presence of 5% laked sheep blood
Peptoniphilus indolicus = assay: Antimicrobial activity against Peptoniphilus indolicus GAI 0915 by agar dilution method in presence of 5% laked sheep blood
[11] = system: Bacteroides thetaiotaomicron; assay: Antimicrobial activity against Bacteroides thetaiotaomicron ATCC 29741 by agar dilution method in presence of 5% laked sheep blood
Prevotella intermedia = assay: Antimicrobial activity against Prevotella intermedia ATCC 25611 by agar dilution method in presence of 5% laked sheep blood
Eggerthella lenta = assay: Antimicrobial activity against Eggerthella lenta ATCC 25559 by agar dilution method in presence of 5% laked sheep blood
Bacteroides fragilis [12] = assay: Antimicrobial activity against Bacteroides fragilis GAI 0558 by agar dilution method in presence of 5% laked sheep blood
Prevotella corporis = assay: Antimicrobial activity against Prevotella corporis GAI 91000 by agar dilution method in presence of 5% laked sheep blood
Porphyromonas gingivalis = assay: Antimicrobial activity against Porphyromonas gingivalis ATCC 33277 by agar dilution method in presence of 5% laked sheep blood
[13] = system: Porphyromonas asaccharolytica; assay: Antimicrobial activity against Porphyromonas asaccharolyticus ATCC 25260 by agar dilution method in presence of 5% laked sheep blood; settings: DSM 20707
Schaalia odontolytica = assay: Antimicrobial activity against Actinomyces odontolyticus GAI 91002 by agar dilution method in presence of 5% laked sheep blood
[14] = system: Sutterella wadsworthensis; assay: Antimicrobial activity against Sutterella wadsworthensis ATCC 51579 by agar dilution method in presence of 5% laked sheep blood
Bifidobacterium breve = assay: Antimicrobial activity against Bifidobacterium breve ATCC 15700 by agar dilution method in presence of 5% laked sheep blood
Cutibacterium acnes = assay: Antimicrobial activity against Propionibacterium acnes ATCC 11828 by agar dilution method in presence of 5% laked sheep blood
[15] = system: Propionibacterium granulosum; assay: Antimicrobial activity against Propionibacterium granulosum ATCC 25564 by agar dilution method in presence of 5% laked sheep blood; settings: Cutibacterium granulosum
[16] = system: Limosilactobacillus reuteri; assay: Antimicrobial activity against Lactobacillus reuteri JCM 1112 by agar dilution method in presence of 5% laked sheep blood
Bacteroides uniformis = assay: Antimicrobial activity against Bacteroides uniformis ATCC 8492 by agar dilution method in presence of 5% laked sheep blood
[17] = system: Enterocloster clostridioformis; assay: Antimicrobial activity against Clostridium clostridioforme NCTC 11224 by agar dilution method in presence of 5% laked sheep blood
Gemella morbillorum = assay: Antimicrobial activity against Gemella morbillorum ATCC 27824 by agar dilution method in presence of 5% laked sheep blood
Lactobacillus brevis = assay: Antimicrobial activity against Lactobacillus brevis subsp. brevis JCM 1059 by agar dilution method in presence of 5% laked sheep blood; settings: Levilactobacillus brevis
[18] = Antimicrobial activity against Bifidobacterium adolescentis ATCC 15703 by agar dilution method in presence of 5% laked sheep blood
[19] = system: Staphylococcus saccharolyticus; assay: Antimicrobial activity against Staphylococcus saccharolyticus ATCC 14953 by agar dilution method in presence of 5% laked sheep blood
Phocaeicola vulgatus = assay: Antimicrobial activity against Bacteroides vulgatus GAI 0673 by agar dilution method in presence of 5% laked sheep blood
Hoylesella oralis = assay: Antimicrobial activity against Prevotella oralis ATCC 33269 by agar dilution method in presence of 5% laked sheep blood
[20] = system: Streptococcus intermedius; assay: Antimicrobial activity against Streptococcus intermedius ATCC 27335 by agar dilution method in presence of 5% laked sheep blood
[21] = Antimicrobial activity against Veillonella dispar ATCC 17748 by agar dilution method in presence of 5% laked sheep blood
[22] = system: Paeniclostridium sordellii; assay: Antimicrobial activity against Clostridium sordellii ATCC 9714 by agar dilution method in presence of 5% laked sheep blood; settings: Paraclostridium sordellii
Prevotella buccae = assay: Antimicrobial activity against Prevotella buccae ATCC 33574 by agar dilution method in presence of 5% laked sheep blood; settings: Segatella buccae
[23] = system: Lactobacillus acidophilus; assay: Antimicrobial activity against Lactobacillus acidophilus JCM 1132 by agar dilution method in presence of 5% laked sheep blood

Measured: MIC

C[C@@H](O)[C@H]1C(=O)N2C(C(=O)O)=C(S[C@@H]3CN[C@H](C(=O)N(C)C)C3)[C@H](C)[C@H]12 [MEROPENEM]
0.25 µg/mL: Bacteroides fragilis [5] | Bacteroides fragilis [7] | [11] | [17] | [20] | Prevotella buccae | [23]
≤ 0.015 µg/mL: [6] | [9] | Peptoniphilus indolicus | Porphyromonas gingivalis | [13] | Gemella morbillorum
2 µg/mL: Bacteroides fragilis [4] | Cutibacterium acnes
0.05 µg/mL: Bacteroides fragilis [12]
0.06 µg/mL: Campylobacter gracilis | Bifidobacterium bifidum | Clostridium septicum | [8] | Prevotella oris | Prevotella intermedia | [14]
0.5 µg/mL: [2] | Schaalia odontolytica | [16] | Lactobacillus brevis
> 128 µg/mL: Bacteroides fragilis [10]
0.125 µg/mL: Bacteroides fragilis [1] | [3] | Parvimonas micra | Bacteroides uniformis | [18] | [19] | Phocaeicola vulgatus
0.03 µg/mL: Veillonella parvula | Bilophila wadsworthia | Prevotella corporis | Hoylesella oralis | [21] | [22]
1 µg/mL: Thomasclavelia ramosa | Eggerthella lenta | Bifidobacterium breve | [15]
4 µg/mL: Clostridioides difficile

Cc1ncc([N+](=O)[O-])n1CCO [METRONIDAZOLE]
> 128 µg/mL: Cutibacterium acnes | [15] | [16] | Gemella morbillorum | Lactobacillus brevis | [19] | [20] | [23]
0.03 µg/mL: Porphyromonas gingivalis
64 µg/mL: [18]
0.25 µg/mL: Bacteroides fragilis [4] | Prevotella oris | [13] | Phocaeicola vulgatus
0.5 µg/mL: Campylobacter gracilis | Clostridioides difficile | Bacteroides fragilis [7] | Peptoniphilus indolicus | Eggerthella lenta | Bacteroides fragilis [12] | Bacteroides uniformis | Prevotella buccae
2 µg/mL: Veillonella parvula | Thomasclavelia ramosa | [21]
0.125 µg/mL: [9] | Prevotella corporis | Hoylesella oralis
4 µg/mL: Bifidobacterium bifidum
16 µg/mL: Schaalia odontolytica | Bifidobacterium breve
1 µg/mL: Bacteroides fragilis [1] | Parvimonas micra | Clostridium septicum | Bacteroides fragilis [5] | [6] | Bacteroides fragilis [10] | [11] | Prevotella intermedia | [14] | [22]
0.06 µg/mL: [3] | [8] | Bilophila wadsworthia
8 µg/mL: [2]
≤ 0.015 µg/mL: [17]

C[C@@H](O)[C@H]1C(=O)N2C(C(=O)O)=C(S[C@H]3C[C@@H](C(=O)N4CC[C@H](NC(=O)CNC(=N)N)C4)N(C)C3)[C@H](C)[C@H]12 [TOMOPENEM]
1 µg/mL: Bacteroides fragilis [12] | Bifidobacterium breve | Cutibacterium acnes
> 128 µg/mL: Bacteroides fragilis [10]
0.5 µg/mL: [2] | Thomasclavelia ramosa | [11] | Eggerthella lenta | Schaalia odontolytica | [14] | [15]
≤ 0.015 µg/mL: [9] | Peptoniphilus indolicus | [13] | [22]
0.125 µg/mL: Parvimonas micra | Bacteroides fragilis [5] | [8] | Prevotella oris | Bilophila wadsworthia | [16] | [18] | [20]
4 µg/mL: Bacteroides fragilis [4]
2 µg/mL: Clostridioides difficile
0.06 µg/mL: Campylobacter gracilis | Bifidobacterium bifidum | Prevotella intermedia | Prevotella corporis | [19] | Hoylesella oralis
0.03 µg/mL: Veillonella parvula | Clostridium septicum | [6] | Porphyromonas gingivalis | [17] | Gemella morbillorum | [21]
0.25 µg/mL: Bacteroides fragilis [1] | [3] | Bacteroides fragilis [7] | Bacteroides uniformis | Lactobacillus brevis | Phocaeicola vulgatus | Prevotella buccae | [23]

C[C@@H](O)[C@H]1C(=O)N2C(C(=O)O)=C(S[C@@H]3CN[C@H](CNS(N)(=O)=O)C3)[C@H](C)[C@H]12 [DORIPENEM]
≤ 0.015 µg/mL: [9] | Peptoniphilus indolicus | Porphyromonas gingivalis | Gemella morbillorum | [22]
0.06 µg/mL: Veillonella parvula | Clostridium septicum | [8] | Bilophila wadsworthia | Prevotella intermedia | [19] | Hoylesella oralis | [21]
0.125 µg/mL: [3] | Campylobacter gracilis | Parvimonas micra | Bifidobacterium bifidum | Prevotella oris | Prevotella corporis | [16] | Lactobacillus brevis | [20] | [23]
0.03 µg/mL: [6] | [13]
1 µg/mL: [2] | Thomasclavelia ramosa | Bifidobacterium breve | Cutibacterium acnes
> 128 µg/mL: Bacteroides fragilis [10]
2 µg/mL: Bacteroides fragilis [4]
0.25 µg/mL: Eggerthella lenta | Schaalia odontolytica | [14] | Bacteroides uniformis | [17] | [18] | Phocaeicola vulgatus | Prevotella buccae
4 µg/mL: Clostridioides difficile
0.5 µg/mL: Bacteroides fragilis [1] | Bacteroides fragilis [5] | Bacteroides fragilis [7] | [11] | Bacteroides fragilis [12] | [15]

CC(=N)N1CC[C@H](SC2=C(C(=O)O)N3C(=O)[C@H]([C@@H](C)O)[C@H]3C2)C1
0.03 µg/mL: Porphyromonas gingivalis | [13] | [16] | Lactobacillus brevis | [19] | [22]
2 µg/mL: Eggerthella lenta
1 µg/mL: [2]
0.06 µg/mL: Bifidobacterium bifidum | Prevotella oris | Prevotella intermedia | Hoylesella oralis | [21]
≤ 0.015 µg/mL: Clostridium septicum | Gemella morbillorum
4 µg/mL: Bacteroides fragilis [4] | Clostridioides difficile
0.125 µg/mL: Veillonella parvula | Parvimonas micra | [8] | [9] | Peptoniphilus indolicus | Prevotella corporis | Cutibacterium acnes | [15] | [18] | Phocaeicola vulgatus
0.25 µg/mL: Bacteroides fragilis [1] | Campylobacter gracilis | Bacteroides fragilis [5] | [6] | Bacteroides fragilis [7] | Thomasclavelia ramosa | Bacteroides uniformis | [17] | [20] | Prevotella buccae | [23]
> 128 µg/mL: Bacteroides fragilis [10]
0.5 µg/mL: [3] | Bilophila wadsworthia | [11] | Bacteroides fragilis [12] | Schaalia odontolytica | [14] | Bifidobacterium breve
